Experiment: recombinant UMI read abundance after kanamycin selection (control-corrected) (log10(CPM+1)); higher = more efficient recombination; extreme values may be limits of the assay; sequences stand for … in AGTGCAGAGAAAATCGGCCAGTTTTCTCTGCCTGCAGTCCGCATGCCGTGGGACCCCTTGGGTTCTAACCTGTTGCCTAGATTTATGCAGCGGACTGCCTTTCTCCCAAAGTGATAAACCGG…AGGTTGGTTTCACT; site = the 11-nt donor
Method: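 Pooled E. coli donor-specificity screen for the IS621 bridge recombinase. Each library member carries a reprogrammed 11-nt donor and a full-length LE bridge RNA expressed in cis from the natural promoter, with a paired donor-binding loop (8-nt LDG + 4-nt RDG) and a target-binding loop fixed to T5. It is co-electroporated with a T5 target plasmid; recombinase is induced with 0.07 mM IPTG and recombinants are selected on kanamycin. UMIs are counted as CPM, averaged over two biological replicates and corrected by the unselected control. Molecule = full bridge RNA written as DNA, built from the T5 scaffold: LDG = donor specificity nt 1-8, RDG = reverse complement of nt 8-11.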
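Also: IS621 bridge recombinase in Escherichia coli cells against a fixed T5 target plasmid.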

| Sequence | recombinant UMI read abundance (log10) |
| --- | --- |
| ACAGTATCATGGACCGGTTTTCCCGGTAATCCGTATTTGCA (site ACAGTGTCTGG) | 0 |
| ACAGTATCATGGACCGGTTTTCCCGGTAATCCGTATTTGCA (site ACAGTGTCTTG) | 2.4 |
| ACAGTATCATGGACCGGTTTTCCCGGTAATCCGTATTTGCA (site ACAGTGTCTTT) | 0.0151 |
| ACAGTATCATGGACCGGTTTTCCCGGTAATCCGTATTTGCA (site ACAGTTGCTTG) | 0.0085 |
| ACAGTATCATGGACCGGTTTTCCCGGTAATCCGTATTTGCA (site ACAGTTTCTCG) | 0 |
| ACAGTATCATGGACCGGTTTTCCCGGTAATCCGTATTTGCA (site ACAGTTTCTTA) | 0.0131 |
| ACAGTATCATGGACCGGTTTTCCCGGTAATCCGTATTTGCA (site ACAGTTTCTTG) | 1.23 |
| ACAGTATCATGGACCGGTTTTCCCGGTAATCCGTATTTGCA (site ACATGATCTTG) | 1.29 |
| ACAGTATCATGGACCGGTTTTCCCGGTAATCCGTATTTGCA (site ACATTACCTTG) | 0 |
| ACAGTATCATGGACCGGTTTTCCCGGTAATCCGTATTTGCA (site ACATTATCTGG) | 0 |
| ACAGTATCATGGACCGGTTTTCCCGGTAATCCGTATTTGCA (site ACATTATCTTG) | 1.22 |
| ACAGTATCATGGACCGGTTTTCCCGGTAATCCGTATTTGCA (site ACATTATCTTT) | 0.0113 |
| ACAGTATCATGGACCGGTTTTCCCGGTAATCCGTATTTGCA (site ACATTGTCTTG) | 1.03 |
| ACAGTATCATGGACCGGTTTTCCCGGTAATCCGTATTTGCA (site ACCATATCTTG) | 1.91 |
| ACAGTATCATGGACCGGTTTTCCCGGTAATCCGTATTTGCA (site ACCGAATCTTG) | 0 |
| ACAGTATCATGGACCGGTTTTCCCGGTAATCCGTATTTGCA (site ACCGTAACTTG) | 0.0063 |
| ACAGTATCATGGACCGGTTTTCCCGGTAATCCGTATTTGCA (site ACCGTATCTAG) | 0.0104 |
| ACAGTATCATGGACCGGTTTTCCCGGTAATCCGTATTTGCA (site ACCGTATCTTC) | 0.00762 |
| ACAGTATCATGGACCGGTTTTCCCGGTAATCCGTATTTGCA (site ACCGTATCTTG) | 1.82 |

| Sequence | recombinant UMI read abundance (log10) |
| --- | --- |
| ACAGTATCATGGACCGGTTTTCCCGGTAATCCGTATTTGCA (site ACCGTCTCTTG) | 1.39 |
| ACAGTATCATGGACCGGTTTTCCCGGTAATCCGTATTTGCA (site ACGCTATCTTG) | 1.16 |
| ACAGTATCATGGACCGGTTTTCCCGGTAATCCGTATTTGCA (site ACGGCATCTTG) | 0 |
| ACAGTATCATGGACCGGTTTTCCCGGTAATCCGTATTTGCA (site ACGGTAGCTTG) | 0.0044 |
| ACAGTATCATGGACCGGTTTTCCCGGTAATCCGTATTTGCA (site ACGGTATCTCG) | 0.00452 |
| ACAGTATCATGGACCGGTTTTCCCGGTAATCCGTATTTGCA (site ACGGTATCTTA) | 0.00481 |
| ACAGTATCATGGACCGGTTTTCCCGGTAATCCGTATTTGCA (site ACGGTATCTTG) | 0.0156 |
| ACAGTATCATGGACCGGTTTTCCCGGTAATCCGTATTTGCA (site ACGGTTTCTTG) | 0.0105 |
| ACAGTATCATGGACCGGTTTTCCCGGTAATCCGTATTTGCA (site ACTGGATCTTG) | 0 |
| ACAGTATCATGGACCGGTTTTCCCGGTAATCCGTATTTGCA (site ACTGTACCTTG) | 0 |
| ACAGTATCATGGACCGGTTTTCCCGGTAATCCGTATTTGCA (site ACTGTATCTGG) | 0.00893 |
| ACAGTATCATGGACCGGTTTTCCCGGTAATCCGTATTTGCA (site ACTGTATCTTG) | 2.31 |
| ACAGTATCATGGACCGGTTTTCCCGGTAATCCGTATTTGCA (site ACTGTATCTTT) | 0.00405 |
| ACAGTATCATGGACCGGTTTTCCCGGTAATCCGTATTTGCA (site ACTGTGTCTTG) | 1.26 |
| ACAGTATCATGGACCGGTTTTCCCGGTAATCCGTATTTGCA (site ACTTTATCTTG) | 1.44 |
| ACAGTATCATGGACCGGTTTTCCCGGTAATCCGTATTTGCA (site AGAGGATCTTG) | 0.0328 |
| ACAGTATCATGGACCGGTTTTCCCGGTAATCCGTATTTGCA (site AGAGTACCTTG) | 0 |
| ACAGTATCATGGACCGGTTTTCCCGGTAATCCGTATTTGCA (site AGAGTATCTGG) | 0.0344 |
| ACAGTATCATGGACCGGTTTTCCCGGTAATCCGTATTTGCA (site AGAGTATCTTG) | 2.46 |

| Sequence | recombinant UMI read abundance (log10) |
| --- | --- |
| ACAGTATCATGGACCGGTTTTCCCGGTAATCCGTATTTGCA (site AGAGTATCTTT) | 0.0042 |
| ACAGTATCATGGACCGGTTTTCCCGGTAATCCGTATTTGCA (site AGAGTGTCTTG) | 1.6 |
| ACAGTATCATGGACCGGTTTTCCCGGTAATCCGTATTTGCA (site AGATTATCTTG) | 1.58 |
| ACAGTATCATGGACCGGTTTTCCCGGTAATCCGTATTTGCA (site AGTGTATCTTG) | 1.45 |
| ACAGTATCATGGACCGGTTTTCCCGGTAATCCGTATTTGCA (site ATACTATCTTG) | 1.12 |
| ACAGTATCATGGACCGGTTTTCCCGGTAATCCGTATTTGCA (site ATAGCATCTTG) | 1.83 |
| ACAGTATCATGGACCGGTTTTCCCGGTAATCCGTATTTGCA (site ATAGTAGCTTG) | 0.354 |
| ACAGTATCATGGACCGGTTTTCCCGGTAATCCGTATTTGCA (site ATAGTATCTCG) | 0.0911 |
| ACAGTATCATGGACCGGTTTTCCCGGTAATCCGTATTTGCA (site ATAGTATCTTA) | 0 |
| ACAGTATCATGGACCGGTTTTCCCGGTAATCCGTATTTGCA (site ATAGTATCTTG) | 2.04 |
| ACAGTATCATGGACCGGTTTTCCCGGTAATCCGTATTTGCA (site ATAGTTTCTTG) | 0.0207 |
| ACAGTATCATGGACCGGTTTTCCCGGTAATCCGTATTTGCA (site ATGGTATCTTG) | 1.7 |
| ACAGTATCATGGACCGGTTTTCCCGGTAATCCGTATTTGCA (site CCAGGATCTTG) | 0.811 |
| ACAGTATCATGGACCGGTTTTCCCGGTAATCCGTATTTGCA (site CCAGTACCTTG) | 0.0123 |
| ACAGTATCATGGACCGGTTTTCCCGGTAATCCGTATTTGCA (site CCAGTATCTGG) | 0.613 |
| ACAGTATCATGGACCGGTTTTCCCGGTAATCCGTATTTGCA (site CCAGTATCTTG) | 2.71 |
| ACAGTATCATGGACCGGTTTTCCCGGTAATCCGTATTTGCA (site CCAGTATCTTT) | 0.00394 |
| ACAGTATCATGGACCGGTTTTCCCGGTAATCCGTATTTGCA (site CCAGTGTCTTG) | 1.8 |
| ACAGTATCATGGACCGGTTTTCCCGGTAATCCGTATTTGCA (site CCATTATCTTG) | 2.31 |

— the supplement of paper PMC11208160
